Test system: NOMO1
Experiment: cell viability relative to DMSO control; higher = less cytotoxic
Details: 48 h
In short: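 Viability was expressed as a per-plate percentage of DMSO wells, with cell-free wells as background. Leukemia cells (NOMO1 or SEM at 500 cells/well, P12-Ichikawa at 1000 cells/well) were adapted for at least four passages in each medium and seeded in 1536-well plates (5 μl). Library compounds in DMSO were pin-dosed over an 11-point threefold series from 47 μM to 0.79 nM, and CellTiter-Glo One luminescence was read after 48 h at 37°C.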

[1] = HPLM + 10% dialyzed FBS, 0.000781 µM
[2] = HPLM + 10% dialyzed FBS, 0.00234 µM
[3] = HPLM + 10% dialyzed FBS, 0.00702 µM
[4] = HPLM + 10% dialyzed FBS, 0.0211 µM
[5] = HPLM + 10% dialyzed FBS, 0.0632 µM
[6] = HPLM + 10% dialyzed FBS, 0.19 µM
[7] = HPLM + 10% dialyzed FBS, 0.569 µM
[8] = HPLM + 10% dialyzed FBS, 1.71 µM
[9] = HPLM + 10% dialyzed FBS, 5.12 µM
[10] = HPLM + 10% dialyzed FBS, 15.4 µM
[11] = HPLM + 10% dialyzed FBS, 46.1 µM
[12] = RPMI 5 mM glucose + 10% FBS, 0.000781 µM
[13] = RPMI 5 mM glucose + 10% FBS, 0.00234 µM
[14] = RPMI 5 mM glucose + 10% FBS, 0.00702 µM
[15] = RPMI 5 mM glucose + 10% FBS, 0.0211 µM
[16] = RPMI 5 mM glucose + 10% FBS, 0.0632 µM
[17] = RPMI 5 mM glucose + 10% FBS, 0.19 µM
[18] = RPMI 5 mM glucose + 10% FBS, 0.569 µM
[19] = RPMI 5 mM glucose + 10% FBS, 1.71 µM
[20] = RPMI 5 mM glucose + 10% FBS, 5.12 µM
[21] = RPMI 5 mM glucose + 10% FBS, 15.4 µM
[22] = RPMI 5 mM glucose + 10% FBS, 46.1 µM
[23] = RPMI 5 mM glucose + 10% dialyzed FBS, 0.000781 µM
[24] = RPMI 5 mM glucose + 10% dialyzed FBS, 0.00234 µM
[25] = RPMI 5 mM glucose + 10% dialyzed FBS, 0.00702 µM
[26] = RPMI 5 mM glucose + 10% dialyzed FBS, 0.0211 µM
[27] = RPMI 5 mM glucose + 10% dialyzed FBS, 0.0632 µM
[28] = RPMI 5 mM glucose + 10% dialyzed FBS, 0.19 µM
[29] = RPMI 5 mM glucose + 10% dialyzed FBS, 0.569 µM
[30] = RPMI 5 mM glucose + 10% dialyzed FBS, 1.71 µM
[31] = RPMI 5 mM glucose + 10% dialyzed FBS, 5.12 µM
[32] = RPMI 5 mM glucose + 10% dialyzed FBS, 15.4 µM
[33] = RPMI 5 mM glucose + 10% dialyzed FBS, 46.1 µM

| Structure (SMILES) | cell viability [1] | cell viability [2] | cell viability [3] | cell viability [4] | cell viability [5] | cell viability [6] | cell viability [7] | cell viability [8] | cell viability [9] | cell viability [10] | cell viability [11] | cell viability [12] | cell viability [13] | cell viability [14] | cell viability [15] | cell viability [16] | cell viability [17] | cell viability [18] | cell viability [19] | cell viability [20] | cell viability [21] | cell viability [22] | cell viability [23] | cell viability [24] | cell viability [25] | cell viability [26] | cell viability [27] | cell viability [28] | cell viability [29] | cell viability [30] | cell viability [31] | cell viability [32] | cell viability [33] |
| --- | --- | --- | --- | --- | --- | --- | --- | --- | --- | --- | --- | --- | --- | --- | --- | --- | --- | --- | --- | --- | --- | --- | --- | --- | --- | --- | --- | --- | --- | --- | --- | --- | --- |
| CC(C)C[C@H](NC(=O)[C@H](CCc1ccccc1)NC(=O)CN1CCOCC1)C(=O)N[C@@H](Cc1ccccc1)C(=O)N[C@@H](CC(C)C)C(=O)[C@@]1(C)CO1 | 94.7% | 95.3% | 103% | 99.4% | 7.57% | 8.63% | 5.74% | 4.23% | 1.47% | 0.357% | 0.4% | 77.8% | 88.9% | 90% | 83.9% | 6.13% | 6.37% | 4.68% | 3.7% | 2.13% | -0.195% | -0.384% | 90.9% | 93.3% | 98.5% | 92% | 8.53% | 8.08% | 5.45% | 3.98% | 2.7% | 0.526% | -0.204% |
| COc1cc2ncnc(Nc3ccc(F)c(Cl)c3)c2cc1NC(=O)/C=C/CN1CCCCC1 | 92.2% | 105% | 114% | 102% | 108% | 118% | 81.9% | 81.8% | 72.1% | 65.6% | 41.5% | 86.4% | 93.7% | 91.1% | 86.3% | 98.4% | 84.9% | 89.6% | 88.4% | 89.1% | 91.7% | 75.5% | 95.7% | 97.7% | 93.6% | 85.4% | 91.3% | 96.6% | 85.1% | 95.2% | 78.3% | 65.6% | 72.9% |
| O=C(c1ccc(Nc2nccc(-c3cc4ccccc4s3)n2)cc1)N1CCC(N2CCCC2)CC1 | 122% | 132% | 125% | 125% | 124% | 114% | 105% | 95.3% | 104% | 41.8% | 1.51% | 113% | 126% | 107% | 110% | 106% | 119% | 118% | 101% | 96.2% | 91.3% | 2.67% | 122% | 129% | 115% | 114% | 124% | 106% | 120% | 121% | 95% | 80.2% | 2.88% |
| O=C(NC[C@H](O)CO)c1ccncc1Nc1ccc(I)cc1F | 94.7% | 98.5% | 90% | 93% | 82.2% | 60.9% | 53.2% | 56% | 49.2% | 38.6% | 40.4% | 103% | 101% | 111% | 90.8% | 65.2% | 61.7% | 52.6% | 51.6% | 47.6% | 37.9% | 6.49% | 88.3% | 96.1% | 93.6% | 81.1% | 72.2% | 61.9% | 52% | 49.1% | 41.6% | 38.9% | 39.3% |
| Nc1nc(N)c2nc(CNc3ccc(C(=O)NC(CCC(=O)O)C(=O)O)cc3)cnc2n1 (stereo unspecified) | 105% | 123% | 118% | 112% | 97.5% | 70.4% | 49.8% | 57.1% | 57.4% | 61.4% | 65.2% | 97.1% | 95.9% | 103% | 102% | 92.9% | 118% | 103% | 106% | 112% | 133% | 117% | 119% | 117% | 118% | 131% | 72.7% | 42.9% | 38.3% | 45% | 46% | 38.9% | 40.1% |
| Cc1[nH]c2ccccc2c1CCNCc1ccc(/C=C/C(=O)NO)cc1 | 102% | 108% | 126% | 99.9% | 137% | 103% | 61.8% | 14.2% | 9% | 8.41% | 8.11% | 111% | 118% | 108% | 106% | 110% | 102% | 82.9% | 10.9% | 7.29% | 7.8% | 7.5% | 106% | 122% | 116% | 99.5% | 122% | 110% | 84.4% | 13% | 8.52% | 9.32% | 7.81% |
| COC(=O)[C@@H]1[C@H]2C[C@H]3c4[nH]c5ccccc5c4CCN3C[C@@H]2CC[C@@H]1O | 120% | 127% | 122% | 131% | 132% | 128% | 108% | 41.2% | 39.8% | 44.5% | 35.6% | – | – | – | – | – | – | – | – | – | – | – | – | – | – | – | – | – | – | – | – | – | – |
| COc1cc2nccc(Oc3ccc(NC(=O)NC4CC4)c(Cl)c3)c2cc1C(N)=O | 129% | 120% | 111% | 98.7% | 145% | 100% | 114% | 113% | 111% | 78.1% | 17.2% | – | – | – | – | – | – | – | – | – | – | – | – | – | – | – | – | – | – | – | – | – | – |
| CC(C)C(=O)Nc1ccc([N+](=O)[O-])c(C(F)(F)F)c1 | 118% | 120% | 118% | 128% | 140% | 137% | 44% | 39.3% | 39% | 42.3% | 41.3% | – | – | – | – | – | – | – | – | – | – | – | – | – | – | – | – | – | – | – | – | – | – |

From the supplement of paper PMC11451515
